Experimental data from patent US8461389B2, “Psycho-pharmaceuticals” (University College Dublin, National University of Ireland, …, priority 2008, dated 2013).

Tested on: C57B16 mice
Assay: Forced swim test
Assay type: in vivo
Conditions: 3 mg/kg and 5 mg/kg; n=8; FIG. 10B
Description: • 1. Fill a 12 cm diameter glass cylinder to 10 cm with 22° C. water. • 2. Place two animals simultaneously in individual side-by-side cylinders separated by an opaque screen. • 3. Place mice in the cylinders for 6 minutes. • 4. Observe the behaviour of the mice for the last 4-minutes of the 6-minute experimental session. • 5. Sessions are videotaped and scored blind, Immobility is scored by summing the time spent immobile; movements necessary to maintain the animals head above water were not scored with data from treated groups compared with data from the control group using nonpaired Student's t tests (two tailed). • 6. Animals are dried with paper towels and heat lamps. FST in Rats: Habituation Session (Day 1) • 1. On Day 1, […] prior to testing, place the animals in the experimental room 60 min before the beginning of the habituation session. Randomly assign animals to a drug treatment, but give all animals within a cage the same treatment. Make food and water available throughout the experiment. • 2. Weigh two animals individually, then place one rat in each of the two cylinders (20 cm in diameter×40 cm high) containing water (25° C.) for 15 min (habituation session). No scoring of immobility is performed during the habituation session. […]
Values are expressed as mean±S.E.M (n=8). Statistical difference was determined using a Mann Whitney non-parametric U-test. […]

In the case of `CCCCSc1ccc(C(SCCN(C)C)c2ccccc2)cc1` (single isomer, unassigned) [dextrorotary (+) enantiomer], the “antidepressant activity of separated enantiomer (time spent immobile, forced swim test)” value is reported as “retains the antidepressant biologic activity”.
